Results published in ChEMBL document CHEMBL1137115, “Preparation of novel aza-1,7-annulated indoles and their conversion to potent indolocarbazole kinase inhibitors” (Bioorg Med Chem Lett, 2004).

Tests used:
[1] = Inhibition of Protein kinase A
[2] = target: Cyclin-dependent kinase 4/cyclin D1 (Homo sapiens, UniProt P11802); experiment: Inhibition of Cyclin D1-cyclin-dependent kinase 4; format: protein-complex assay
HCT-116 = experiment: Antiproliferative activity was tested in human HCT116 (colon) cell line; format: functional, cell-based
[3] = target: Cyclin-dependent kinase 2/cyclin E (Homo sapiens, UniProt P24941); experiment: Inhibition of Cyclin E-cyclin-dependent kinase 2; format: protein-complex assay

Chain of Cyclin-dependent kinase 4/cyclin D1 (P11802 whole entry): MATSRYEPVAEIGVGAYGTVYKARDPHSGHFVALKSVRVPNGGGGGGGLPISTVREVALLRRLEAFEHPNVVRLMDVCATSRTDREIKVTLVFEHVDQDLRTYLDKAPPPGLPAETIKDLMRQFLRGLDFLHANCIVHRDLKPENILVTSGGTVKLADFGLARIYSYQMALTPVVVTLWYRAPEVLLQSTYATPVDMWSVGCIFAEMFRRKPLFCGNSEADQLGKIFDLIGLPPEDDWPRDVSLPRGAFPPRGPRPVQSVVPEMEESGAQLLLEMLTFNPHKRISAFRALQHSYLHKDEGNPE
Chain of Cyclin-dependent kinase 4/cyclin D1 (P24385 whole entry, further chain): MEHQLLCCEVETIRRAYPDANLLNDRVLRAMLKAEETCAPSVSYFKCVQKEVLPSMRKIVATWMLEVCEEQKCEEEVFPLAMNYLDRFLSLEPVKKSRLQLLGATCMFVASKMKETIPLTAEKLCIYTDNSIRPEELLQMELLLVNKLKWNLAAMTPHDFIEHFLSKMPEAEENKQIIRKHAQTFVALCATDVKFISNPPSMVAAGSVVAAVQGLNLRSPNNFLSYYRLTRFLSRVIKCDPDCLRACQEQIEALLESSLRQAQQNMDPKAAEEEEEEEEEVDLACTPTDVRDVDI

| SMILES | IC50 [1] | IC50 [2] | IC50 (HCT-116) | IC50 [3] |
| --- | --- | --- | --- | --- |
| Cc1cn(S(=O)(=O)N2CCn3c4c(cccc4c4c5c(c6c7ccccc7[nH]c6c43)C(=O)NC5=O)C2)cn1 | > 2000 nM | 120 nM | > 10000 nM | – |
| CS(=O)(=O)N1CCn2c3c(cccc3c3c4c(c5c6ccccc6[nH]c5c32)C(=O)NC4=O)C1 | > 2000 nM | 50 nM | 1600 nM | > 200 nM |
| CC(C)N1CCn2c3c(cccc3c3c4c(c5c6ccccc6[nH]c5c32)C(=O)NC4=O)C1 | > 2000 nM | 70 nM | 640 nM | 780 nM |
| NCC(=O)N1CCn2c3c(cccc3c3c4c(c5c6ccccc6[nH]c5c32)C(=O)NC4=O)C1 | > 20000 nM | – | > 10000 nM | – |
| O=C1NC(=O)c2c1c1c3ccc(C(F)(F)F)c(CO)c3[nH]c1c1c2c2cccc3c2n1CCNC3 | – | 40 nM | 3500 nM | – |
| O=C1NC(=O)c2c1c1c3ccccc3[nH]c1c1c2c2cccc3c2n1CCCCNC3 | 40 nM | 80 nM | 90 nM | 200 nM |

More lines, now with the values ahead:

| IC50 [1] | IC50 [2] | IC50 (HCT-116) | IC50 [3] | SMILES |
| --- | --- | --- | --- | --- |
| 200 nM | 30 nM | 260 nM | > 200 nM | O=C1NC(=O)c2c1c1c3cc(F)ccc3[nH]c1c1c2c2cccc3c2n1CCNC3 |
| > 2000 nM | 60 nM | 170 nM | 210 nM | O=C1NC(=O)c2c1c1c3ccc(C(F)(F)F)cc3[nH]c1c1c2c2cccc3c2n1CCNC3 |
| > 2000 nM | – | 400 nM | > 200 nM | O=C1NC(=O)c2c1c1c3cc(F)c(F)cc3[nH]c1c1c2c2cccc3c2n1CCNC3 |
| 160 nM | 27 nM | 310 nM | 30 nM | O=C1NC(=O)c2c1c1c3ccccc3[nH]c1c1c2c2cccc3c2n1CCNC3 |
| 430 nM | 30 nM | 200 nM | 10 nM | O=C1NC(=O)c2c1c1c3ccc(F)cc3[nH]c1c1c2c2cccc3c2n1CCNC3 |
